Results reported in patent publication US20220175779A1, “COMPOUNDS AGAINST CANCER BEARING TYROSINE KINASE INHIBITOR RESISTANT EGFR MUTATIONS” (Board of Regents, The University of Texas System, priority 2019, published 2022).

Columns and labels:
[1] = target: T1, Ba/F3 cells expressing EGFR A767insASV (Homo sapiens, UniProt P00533, DUP767-769, cells depend on it); assay: Cell viability (Cell Titer Glo), Ba/F3 cells expressing A767insASV; type: cell-based; details: 72 hours of treatment, read-out: IC50 values, nM Average
T1 construct: A767insASV|N/A|N/A|Addgene #32066
T1 sequence (P00533 with tags, fused parts or gaps DUP767-769): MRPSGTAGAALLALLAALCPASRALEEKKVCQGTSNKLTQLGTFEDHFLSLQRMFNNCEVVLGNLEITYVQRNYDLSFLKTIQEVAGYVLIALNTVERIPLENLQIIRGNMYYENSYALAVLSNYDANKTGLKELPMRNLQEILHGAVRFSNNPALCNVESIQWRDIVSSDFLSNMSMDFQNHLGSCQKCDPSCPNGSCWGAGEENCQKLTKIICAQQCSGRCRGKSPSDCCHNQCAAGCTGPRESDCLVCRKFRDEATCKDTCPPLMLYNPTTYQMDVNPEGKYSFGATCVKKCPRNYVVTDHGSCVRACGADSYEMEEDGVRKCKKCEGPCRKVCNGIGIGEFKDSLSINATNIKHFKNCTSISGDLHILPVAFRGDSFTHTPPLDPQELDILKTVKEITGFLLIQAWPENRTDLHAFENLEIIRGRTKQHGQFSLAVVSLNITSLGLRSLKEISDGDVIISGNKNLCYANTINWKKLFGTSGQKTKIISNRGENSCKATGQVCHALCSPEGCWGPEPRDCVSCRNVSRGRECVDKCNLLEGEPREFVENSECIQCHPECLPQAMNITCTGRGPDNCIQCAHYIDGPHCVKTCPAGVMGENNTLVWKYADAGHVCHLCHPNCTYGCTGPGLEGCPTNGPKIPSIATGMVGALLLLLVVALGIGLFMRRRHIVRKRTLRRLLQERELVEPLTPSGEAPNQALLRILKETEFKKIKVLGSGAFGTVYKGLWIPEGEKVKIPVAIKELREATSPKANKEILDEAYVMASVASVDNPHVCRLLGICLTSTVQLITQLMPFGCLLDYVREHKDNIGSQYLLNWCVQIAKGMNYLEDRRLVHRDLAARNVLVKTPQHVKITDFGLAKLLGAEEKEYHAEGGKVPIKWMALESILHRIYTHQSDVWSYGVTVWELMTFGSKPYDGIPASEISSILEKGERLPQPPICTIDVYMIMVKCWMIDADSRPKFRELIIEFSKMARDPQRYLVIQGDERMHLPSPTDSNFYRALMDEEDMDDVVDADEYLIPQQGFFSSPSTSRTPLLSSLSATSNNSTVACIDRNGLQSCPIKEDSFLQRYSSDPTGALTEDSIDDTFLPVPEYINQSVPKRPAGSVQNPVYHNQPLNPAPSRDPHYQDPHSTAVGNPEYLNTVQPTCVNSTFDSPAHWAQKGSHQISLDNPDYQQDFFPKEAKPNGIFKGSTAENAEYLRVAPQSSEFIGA
Description: Cell viability was determined by the Cell Titer Glo assay.
Briefly, stable Ba/F3 cell lines were generated by retroviral transduction of Ba/F3 cell line for 12 hours. […] Three days after transduction, 2 μg/ml puromycin (Invitrogen) was added to the RPMI media. Cell lines were then grown in the absence of IL-3 for two weeks and cell viability was assessed every three days using the Cell Titer Glo assay (Progema).
Briefly, 2000-3000 cells per well were plated in 384-well plates (Greiner Bio-One) in technical triplicate. Cells were treated with seven different concentrations of tyrosine kinase inhibitors or vehicle alone at a final volume of 40 μL per well. After 3 days, 11 μL of Cell Titer Glo was added to each well. Plates were shaken for 15 minutes, and bioluminescence was determined using a FLUOstar OPTIMA multi-mode micro-plate reader (BMG LABTECH). Bioluminescence values were normalized to DMSO treated cells, and normalized values were plotted in GraphPad Prism using non-linear regression fit to normalized data with a variable slope.

EGFR G719X/T790M = assay: In vitro sensitivity of T790M acquired with an exon 18 point mutation; type: cell-based; details: T790M acquired with an exon 18 point mutation (G719X/T790M)
Description: Thus, in certain aspects, the subject is determined to not have a mutation at EGFR C797 and/or T790, such as C797S and/or T790M. […] However, in certain aspects, L858R/T790M/C797S, Exon 19 deletion/T790M/C797s, and exon 20 insertions+ C797S or T790M mutants are resistant to EGFR TKIs.

C=CC(=O)N1CCC(Oc2cc3c(Nc4ccc(Cl)c(Cl)c4F)ncnc3cc2OC)CC1 [Poziotinib, 1-[4-[4-(3,4-dichloro-2-fluoroanilino)-7-methoxyquinazolin-6-yl]oxypiperidin-1-yl]prop-2-en-1-one]
GI50 [1]: 1.62 nM
sensitivity in vitro (EGFR G719X/T790M): remain sensitive
